Laboratory results taken from patent EP4650362A1, “NEUROPROTECTIVE PSD-95 POLYPEPTIDE INHIBITOR AND USE THEREOF” (Beijing Tuo Jie Biopharmaceutical Co. Ltd., priority 2023, dated 2024).
Read-outs that look alike come from different tables or passages of the source. Non-standard residues stand in square brackets, D forms with d. Residues, ends and D or L forms follow the SMILES beside them. Tle = CC(C)(C)[C@H](N)C(=O)O; Dab = NCC[C@H](N)C(=O)O; Aib = CC(C)(N)C(=O)O

Test: pharmacokinetic study in beagle dogs, single intravenous infusion
Assay type: in vivo
Protocol: With standard beagle dogs as test animals, the pharmacokinetic behavior of a polypeptide compound administered via single intravenous infusion in beagle dogs (plasma) was studied.
For polypeptide compound 22, two dose groups were set: 1.2 nmol/g and 0.4 nmol/g. For NA-1, one dose group was set: 1.2 nmol/g. Each group consisted of four animals, with an equal number of males and females. The polypeptide compound was dissolved in 1× PBS, and the polypeptide compound solution was then administered via intravenous infusion over 10 min. The blood collection time points were as follows: before infusion (0 h), 5 min after the start of bolus injection, and 0 min, 2 min, 5 min, 10 min, 15 min, 30 min, 1 h, 2 h, 4 h, 8 h, and 24 h after the end of bolus injection. At each time point, 0.5 mL of blood was collected and transferred to an EDTA-K2 anticoagulation centrifuge tube. Meanwhile, 50 µL of a protease inhibitor was added. After thorough mixing, the mixture was centrifuged at 2000 g for 10 min (4 °C), and the plasma was separated within 1 h, aliquoted into cryopreservation tubes, and stored at -60 to -90 °C. The blood collection-to-centrifugation process was performed under ice bath conditions.
The plasma concentrations of the test compounds were determined using the method in Test Example 3.4.3. Plasma concentration-time curves were plotted, and the pharmacokinetic parameters were calculated using PKSolver software.

[1] = beagle dogs, intravenous infusion over 10 min, 0.4 nmol/g, Male
[2] = beagle dogs, intravenous infusion over 10 min, 1.2 nmol/g, Female
[3] = beagle dogs, intravenous infusion over 10 min, 1.2 nmol/g, Male
[4] = dog, plasma, beagle dogs, intravenous infusion over 10 min, 0.4 nmol/g, Female
[5] = dog, plasma, beagle dogs, intravenous infusion over 10 min, 0.4 nmol/g, Male
[6] = dog, plasma, beagle dogs, intravenous infusion over 10 min, 1.2 nmol/g, Female
[7] = dog, plasma, beagle dogs, intravenous infusion over 10 min, 1.2 nmol/g, Male

## CC(C)[C@H](NC(=O)[C@H](CC(=O)O)NC(=O)[C@@H](NC(=O)[C@@H](NC(=O)[C@@H](NC(=O)[C@@H](NC(=O)[C@H](CCN)NC(=O)C(C)(C)NC(=O)CNC(=O)[C@@H](CCCNC(=N)N)NC(=O)[C@H](CCCNC(=N)N)NC(=O)[C@H](CCCNC(=N)N)NC(=O)[C@H](CCC(N)=O)NC(=O)[C@@H](CCCNC(=N)N)NC(=O)[C@H](CCCNC(=N)N)NC(=O)[C@H](CCCCN)NC(=O)[C@H](CCCCN)NC(=O)[C@H](N)CCCNC(=N)N)[C@@H](C)O)C(C)(C)C)C(C)(C)C)[C@@H](C)O)C(=O)O [Polypeptide compound 22, r-K-K-R-r-Q-R-R-r-G-Aib-Dab-T-Tle-Tle-T-D-V] (H-[dR]KKR[dR]QRR[dR]G[Aib][Dab]T[Tle][Tle]TDV-OH)
Beagle dogs, intravenous infusion over 10 min, 0.4 nmol/g, Female
  AUClast/dose: 5730
[1]
  AUClast/dose: 4513
  Tmax: 0.17 h
[2]
  AUClast/dose: 6558
  T1/2: 4.25 h
[3]
  AUClast/dose: 8183
  T1/2: 5.90 h
  Tmax: 0.18 h
Both sexes, beagle, dog, in vivo, iv, dogs, same dose (1.2 nmol/g), read-out: average T1/2 (converted)
  half-life: 5.1 h
[4]
  AUC(0-inf): 5890 ng·h/mL
  Cmax: 3930 ng/mL
  MRT: 3.66 h
dog, plasma, beagle dogs, intravenous infusion over 10 min, 0.4 nmol/g, Female, read-out: T1/2 (converted)
  half-life: 2.84 h
dog, plasma, beagle dogs, intravenous infusion over 10 min, 0.4 nmol/g, Female, read-out: Tmax
  Tmax: 0.17 h
[5]
  AUC(0-inf): 5170 ng·h/mL
  Cmax: 2320 ng/mL
  MRT: 4.61 h
dog, plasma, beagle dogs, intravenous infusion over 10 min, 0.4 nmol/g, Male, read-out: T1/2 (converted)
  half-life: 3.36 h
[6]
  AUC(0-inf): 18000 ng·h/mL
  Cmax: 8130 ng/mL
  MRT: 4.91 h
dog, plasma, beagle dogs, intravenous infusion over 10 min, 1.2 nmol/g, Female, read-out: Tmax
  Tmax: 0.18 h
[7]
  AUC(0-inf): 23500 ng·h/mL
  Cmax: 7680 ng/mL
  MRT: 7.03 h
dogs, same dose (1.2 nmol/g)
  average AUC, times that of NA-1: 21.3 times
  average Cmax, times that of NA-1: 1.3 times
